# Source: ChEMBL document CHEMBL2016464, “Identification of Inhibitors of NOD1-Induced Nuclear Factor-κB Activation” (ACS Med Chem Lett, 2011)
# Experiments:
# HEK-293T = assay: Cytotoxicity against HEK293T cells at 20 uM by alamar blue assay; format: cell-based; conditions: human
# cells = conditions: Homo sapiens, HEK-293T, 14 h
# Description: Inhibition of TNFalpha-induced NFkappaB activation in HEK293T cells after 14 hrs by luciferase reporter gene assay
# [1] = molecular target: Nucleotide-binding oligomerization domain-containing protein 2 (Homo sapiens, UniProt Q9HC29)
# [2] = Solubility of the compound at pH 7.4; format: physicochemical; conditions: buffer
# [3] = molecular target: T1, Nucleotide-binding oligomerization domain-containing protein 1 (Homo sapiens, UniProt Q9Y239)
# T1 sequence (Q9Y239 whole entry): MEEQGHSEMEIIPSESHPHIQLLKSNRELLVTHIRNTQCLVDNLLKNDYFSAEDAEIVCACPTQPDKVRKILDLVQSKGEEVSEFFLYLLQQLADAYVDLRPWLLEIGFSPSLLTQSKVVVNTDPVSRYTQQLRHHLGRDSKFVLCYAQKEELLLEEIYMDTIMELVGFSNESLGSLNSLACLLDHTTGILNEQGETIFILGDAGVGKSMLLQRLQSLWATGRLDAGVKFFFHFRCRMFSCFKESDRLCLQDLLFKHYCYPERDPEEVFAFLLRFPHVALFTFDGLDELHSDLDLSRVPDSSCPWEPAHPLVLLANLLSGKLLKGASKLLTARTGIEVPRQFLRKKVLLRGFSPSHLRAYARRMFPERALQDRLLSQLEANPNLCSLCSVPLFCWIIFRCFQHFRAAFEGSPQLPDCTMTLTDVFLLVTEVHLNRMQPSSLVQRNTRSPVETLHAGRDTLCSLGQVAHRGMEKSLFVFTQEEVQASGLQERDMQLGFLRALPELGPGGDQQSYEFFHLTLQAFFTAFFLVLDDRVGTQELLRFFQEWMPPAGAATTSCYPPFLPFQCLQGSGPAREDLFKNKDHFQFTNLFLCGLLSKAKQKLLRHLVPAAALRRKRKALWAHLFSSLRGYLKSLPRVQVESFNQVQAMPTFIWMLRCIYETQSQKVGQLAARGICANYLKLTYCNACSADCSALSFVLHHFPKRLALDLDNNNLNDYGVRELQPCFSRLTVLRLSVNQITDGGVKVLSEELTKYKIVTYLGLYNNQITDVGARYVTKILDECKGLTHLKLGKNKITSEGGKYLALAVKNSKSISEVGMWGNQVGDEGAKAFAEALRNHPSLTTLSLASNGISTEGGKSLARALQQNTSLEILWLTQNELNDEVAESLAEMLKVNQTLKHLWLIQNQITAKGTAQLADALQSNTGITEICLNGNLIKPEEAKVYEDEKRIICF
# Sequence of Nucleotide-binding oligomerization domain-containing protein 2 (Q9HC29 whole entry, the tested form may be a part): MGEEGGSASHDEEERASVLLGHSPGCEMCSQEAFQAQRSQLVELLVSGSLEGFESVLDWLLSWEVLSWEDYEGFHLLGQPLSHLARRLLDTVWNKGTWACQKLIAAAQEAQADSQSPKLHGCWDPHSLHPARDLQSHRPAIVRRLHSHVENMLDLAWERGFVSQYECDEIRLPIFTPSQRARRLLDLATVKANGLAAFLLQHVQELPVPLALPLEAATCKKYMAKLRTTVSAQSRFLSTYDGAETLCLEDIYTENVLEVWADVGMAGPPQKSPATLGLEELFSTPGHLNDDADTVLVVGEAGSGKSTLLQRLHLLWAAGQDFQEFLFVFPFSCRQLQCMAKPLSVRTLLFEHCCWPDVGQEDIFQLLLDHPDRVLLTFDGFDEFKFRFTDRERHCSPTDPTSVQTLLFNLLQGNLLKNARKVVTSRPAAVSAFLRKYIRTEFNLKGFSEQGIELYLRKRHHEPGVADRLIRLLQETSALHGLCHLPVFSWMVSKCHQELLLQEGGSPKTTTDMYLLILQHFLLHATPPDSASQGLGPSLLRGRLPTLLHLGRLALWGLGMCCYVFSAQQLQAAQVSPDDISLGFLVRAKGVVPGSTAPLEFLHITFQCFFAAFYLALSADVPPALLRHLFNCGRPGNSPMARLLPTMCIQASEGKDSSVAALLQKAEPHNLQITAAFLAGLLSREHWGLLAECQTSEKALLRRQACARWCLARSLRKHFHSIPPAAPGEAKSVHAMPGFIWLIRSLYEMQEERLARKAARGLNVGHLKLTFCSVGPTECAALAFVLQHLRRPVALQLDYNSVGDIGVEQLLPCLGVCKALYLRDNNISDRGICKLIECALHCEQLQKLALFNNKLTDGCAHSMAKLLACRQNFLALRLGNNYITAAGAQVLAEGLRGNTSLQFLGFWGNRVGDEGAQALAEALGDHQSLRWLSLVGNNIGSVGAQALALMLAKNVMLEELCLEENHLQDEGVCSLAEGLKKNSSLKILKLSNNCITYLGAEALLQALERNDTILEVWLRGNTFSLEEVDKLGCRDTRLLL
Compound,Activity (HEK-293T) [%],IC50 (cells) [µM],IC50 [1] [µM],solubility [2] [µg/mL],IC50 [3] [µM]
Cc1ccc(S(=O)(=O)n2c(N)nc3cc(C)c(C)cc32)cc1,0,> 20,–,–,–
CCC(=O)N1CCc2cc(S(=O)(=O)N3CCN(c4ccc([N+](=O)[O-])cc4)CC3)ccc21,0,> 20,–,–,–
COc1ccc(NC(=O)c2ccc(CN3CCc4ccccc4C3)cc2)cc1,0,0.65,0.78,–,–
O=C(Nc1ccc(F)cc1)c1ccc(CN2CCCCC2)cc1,0,> 20,–,–,–
Nc1nc2ccccc2n1S(=O)(=O)c1ccc([N+](=O)[O-])cc1,0,–,–,–,–
Cc1ccc(S(=O)(=O)n2c(S)nc3ccc(C)cc32)cc1,0,> 20,–,–,–
CC(=O)c1ccc(N2CCN(S(=O)(=O)c3ccc4c(c3)CC(C)N4C(C)=O)CC2)cc1 (racemic),0,6,3.72,0.1,–
O=C(Nc1ccc(Cl)cc1)c1ccc(CN2CCc3ccccc3C2)cc1,0,0.49,3.54,–,–
CCOC(=O)c1ccc(NC(=O)c2ccc(CN3CCc4ccccc4C3)cc2)cc1,0,0.14,0.4,–,–
CSc1ccc(NC(=O)c2ccc(CN3CCc4ccccc43)cc2)cc1,0,> 20,> 20,–,> 20
Nc1nc2ccccc2n1C(=O)c1ccc(F)cc1,0,–,–,–,–
O=C(C1CC1)N1CCc2cc(S(=O)(=O)N3CCN(c4ccc([N+](=O)[O-])cc4)CC3)ccc21,0,> 20,–,0.1,–
COc1ccc(S(=O)(=O)n2c(N)nc3ccccc32)cc1,0,–,–,–,–
Nc1nc2ccccc2n1C(=O)Cc1ccccc1,0,> 20,> 20,–,> 20
CCOc1ccc(C(=O)Nc2ccc(CN3CCc4ccccc4C3)cc2)cc1,0,> 20,> 20,–,> 20
COc1ccc(NC(=O)c2ccc(CN3CCc4ccccc43)cc2)cc1,0,> 20,> 20,–,> 20
CCC(=O)N1c2ccc(S(=O)(=O)N3CCN(c4ccc([N+](=O)[O-])cc4)CC3)cc2CC1C (racemic),0,4.92,1.55,0.1,–
CCC(=O)N1c2ccc(S(=O)(=O)N3CCN(c4ccc(Cl)cc4)CC3)cc2CC1C (racemic),0,0.58,0.6,0.1,–
N#Cc1ccc(N2CCN(S(=O)(=O)c3ccc4c(c3)CCN4C(=O)C3CC3)CC2)cc1,0,> 20,–,–,–
CC1Cc2cc(S(=O)(=O)N3CCN(c4ccc(Cl)cc4)CC3)ccc2N1C(=O)C1CC1 (racemic),0,7.26,3.63,0.1,–

Compound,Activity (HEK-293T) [%],IC50 (cells) [µM],IC50 [1] [µM],solubility [2] [µg/mL],IC50 [3] [µM]
CCOc1ccc(NC(=O)c2ccc(CN3CCc4ccccc43)cc2)cc1,0,> 20,> 20,–,> 20
Cc1ccc(NC(=O)c2ccc(CN3CCc4ccccc4C3)cc2)cc1,0,> 20,> 20,–,–
CC(=O)N1CCc2cc(S(=O)(=O)N3CCN(c4ccc(C#N)cc4)CC3)ccc21,0,8.79,–,0.1,–
O=C(Nc1ccc(F)cc1)c1ccc(CN2CCc3ccccc3C2)cc1,0,2.88,1.85,–,–
Nc1nc2ccccc2n1C(=O)c1ccc(Cl)cc1Cl,0,–,–,–,–
CCC(=O)N1CCc2cc(S(=O)(=O)N3CCN(c4ccc(C#N)cc4)CC3)ccc21,0,> 20,–,–,–
CC(=O)N1CCc2cc(S(=O)(=O)N3CCN(c4ccc([N+](=O)[O-])cc4)CC3)ccc21,0,> 20,–,–,–
CC(=O)c1ccc(N2CCN(S(=O)(=O)c3ccc4c(c3)CCN4C(C)=O)CC2)cc1,0,> 20,–,–,–
CCOc1ccc(NC(=O)c2ccc(CN3CCCCC3)cc2)cc1,0,> 20,–,–,–
CSc1ccc(NC(=O)c2ccc(CN3CCCCC3)cc2)cc1,0,> 20,–,–,–
CCOc1ccc(NC(=O)c2ccc(CCN3CCc4ccccc4C3)cc2)cc1,0,> 20,> 20,–,> 20
O=C(Nc1ccc(Br)cc1)c1ccc(CN2CCc3ccccc3C2)cc1,0,1.5,–,–,–
CSc1ccc(NC(=O)c2ccc(CN3CCc4ccccc4C3)cc2)cc1,0,0.37,0.26,–,–
O=C(Nc1ccc(OC(F)(F)F)cc1)c1ccc(CN2CCc3ccccc3C2)cc1,0,0.03,0.03,–,0.08
CCC(=O)N1c2ccc(S(=O)(=O)N3CCN(c4ccc(C(C)=O)cc4)CC3)cc2CC1C (racemic),0,1.63,1.58,0.1,–
CC(=O)N1c2ccc(S(=O)(=O)N3CCN(c4ccc(Cl)cc4)CC3)cc2CC1C (racemic),0,5.76,1.75,0.1,–
CCOc1ccc(NC(=O)c2ccc(CN3CCc4ccccc4C3)cc2)cc1,0,2.05,0.57,–,–
COc1ccc(NC(=O)c2ccc(CN3CCCCC3)cc2)cc1,0,> 20,> 20,–,> 20
COc1ccc(C(=O)Cn2c(N)nc3ccccc32)cc1,0,> 20,> 20,–,> 20
Cc1ccc(S(=O)(=O)n2c(C)nc3ccccc32)cc1,0,–,–,–,–

Compound,Activity (HEK-293T) [%],IC50 (cells) [µM],IC50 [1] [µM],solubility [2] [µg/mL],IC50 [3] [µM]
CC(=O)N1c2ccc(S(=O)(=O)N3CCN(c4ccc(C)cc4)CC3)cc2CC1C (racemic),0,4.32,3.45,0.1,–
COc1ccc(N2CCN(S(=O)(=O)c3ccc4c(c3)CC(C)N4C(=O)C3CC3)CC2)cc1 (racemic),0,3.85,0.39,0.1,–
Nc1nc2ccccc2n1CCC(=O)c1ccc(Cl)cc1,0,> 20,–,–,–
O=C(Nc1ccc(F)cc1)c1ccc(CN2CCc3ccccc32)cc1,0,> 20,–,–,–
CC(=O)N1CCc2cc(S(=O)(=O)N3CCN(c4ccc(Cl)cc4)CC3)ccc21,0,> 20,–,–,–
O=C(Nc1ccc(S(=O)(=O)O)cc1)c1ccc(CN2CCc3ccccc3C2)cc1,0,> 20,> 20,–,> 20
Nc1nc2ccccc2n1S(=O)(=O)c1ccccc1,0,> 20,–,–,–
CN(C)c1ccc(NC(=O)c2ccc(CN3CCc4ccccc4C3)cc2)cc1,0,1.83,3.58,–,–
CC1Cc2cc(S(=O)(=O)N3CCN(c4ccc([N+](=O)[O-])cc4)CC3)ccc2N1C(=O)C1CC1 (racemic),0,0.24,0.2,0.1,–
CC(=O)N1c2ccc(S(=O)(=O)N3CCN(c4ccccc4)CC3)cc2CC1C (racemic),0,14.1,8.27,0.1,–
CC(=O)N1c2ccc(S(=O)(=O)N3CCN(c4ccc([N+](=O)[O-])cc4)CC3)cc2CC1C (racemic),0,3.27,–,–,–
CCOC(=O)c1ccc(NC(=O)c2ccc(CCN3CCc4ccccc4C3)cc2)cc1,0,10.8,> 20,–,–
CN(C)c1ccc(NC(=O)c2ccc(CN3CCCCC3)cc2)cc1,0,> 20,–,–,–
COc1ccc(N2CCN(S(=O)(=O)c3ccc4c(c3)CC(C)N4C(C)=O)CC2)cc1 (racemic),0,4.3,3.29,0.1,–
CC(=O)c1ccc(N2CCN(S(=O)(=O)c3ccc4c(c3)CCN4C(=O)C3CC3)CC2)cc1,0,> 20,–,–,–
Cc1ccc(S(=O)(=O)n2cnc3ccccc32)cc1,0,> 20,> 20,–,–
Nc1nc2ccccc2n1S(=O)(=O)c1ccc(Cl)cc1,0,–,–,–,–
Nc1nc2ccccc2n1Cc1ccc(Cl)cc1,0,> 20,–,–,–
CN(C)c1ccc(NC(=O)c2ccc(CN3CCc4ccccc43)cc2)cc1,0,> 20,–,–,–
